Laboratory results reported in the kinase profiling compilation of Christmann-Franck et al. (2016).

How the values were obtained:
Test in all cases: KINOMEscan competition binding
Details in all cases: compound 1.0 µM
CDK2 (human) = CDK2 (human) (UniProt P24941)
[1] = test system: FLT3 (human), P36888 [D835Y]
CDC42BPA (human) = CDC42BPA (human) (UniProt Q5VT25)
MAP3K4 (human) = MAP3K4 (human) (UniProt Q9Y6R4)
MAP3K15 (human) = MAP3K15 (human) (UniProt Q6ZN16)
STK36 (human) = STK36 (human) (UniProt Q9NRP7)
BMX (human) = BMX (human) (UniProt P51813)
MAP3K11 (human) = MAP3K11 (human) (UniProt Q16584)
RPS6KA4 KD1 (human) = RPS6KA4 KD1 (human) (UniProt O75676)
ICK (human) = ICK (human) (UniProt Q9UPZ9)
CSF1R (human) = CSF1R (human) (UniProt P07333)
GRK4 (human) = GRK4 (human) (UniProt P32298)
PRPF4B (human) = PRPF4B (human) (UniProt Q13523)
MAP2K2 (human) = MAP2K2 (human) (UniProt P36507)
TYRO3 (human) = TYRO3 (human) (UniProt Q06418)
PIM3 (human) = PIM3 (human) (UniProt Q86V86)
INSR (human) = INSR (human) (UniProt P06213)
[2] = test system: EGFR (human), P00533 [T790M/L858R]
STK11 (human) = STK11 (human) (UniProt Q15831)
MAP4K2 (human) = MAP4K2 (human) (UniProt Q12851)
TBK1 (human) = TBK1 (human) (UniProt Q9UHD2)
NEK5 (human) = NEK5 (human) (UniProt Q6P3R8)
PRKAA2 (human) = PRKAA2 (human) (UniProt P54646)
MAPK4 (human) = MAPK4 (human) (UniProt P31152)
[3] = test system: PIK3CA (human), P42336 [E545K]
PIP5K1C (human) = PIP5K1C (human) (UniProt O60331)
CLK1 (human) = CLK1 (human) (UniProt P49759)
RPS6KA4 KD2 (human) = RPS6KA4 KD2 (human) (UniProt O75676)
TEC (human) = TEC (human) (UniProt P42680)
[4] = test system: PIK3CA (human), P42336 [E542K]
STK32B (human) = STK32B (human) (UniProt Q9NY57)
CASK (human) = CASK (human) (UniProt O14936)
[5] = test system: KIT (human), P10721 [V559D]
PDPK1 (human) = PDPK1 (human) (UniProt O15530)
HUNK (human) = HUNK (human) (UniProt P57058)
RPS6KA6 KD2 (human) = RPS6KA6 KD2 (human) (UniProt Q9UK32)
[6] = test system: RET (human), P07949 [V804L]
PLK2 (human) = PLK2 (human) (UniProt Q9NYY3)
EIF2AK1 (human) = EIF2AK1 (human) (UniProt Q9BQI3)
IRAK1 (human) = IRAK1 (human) (UniProt P51617)
MAPK14 (human) = MAPK14 (human) (UniProt Q16539)
ULK2 (human) = ULK2 (human) (UniProt Q8IYT8)
STK32A (human) = STK32A (human) (UniProt Q8WU08)

CDC42BPA (human), sequence (Q5VT25 whole entry, looked up): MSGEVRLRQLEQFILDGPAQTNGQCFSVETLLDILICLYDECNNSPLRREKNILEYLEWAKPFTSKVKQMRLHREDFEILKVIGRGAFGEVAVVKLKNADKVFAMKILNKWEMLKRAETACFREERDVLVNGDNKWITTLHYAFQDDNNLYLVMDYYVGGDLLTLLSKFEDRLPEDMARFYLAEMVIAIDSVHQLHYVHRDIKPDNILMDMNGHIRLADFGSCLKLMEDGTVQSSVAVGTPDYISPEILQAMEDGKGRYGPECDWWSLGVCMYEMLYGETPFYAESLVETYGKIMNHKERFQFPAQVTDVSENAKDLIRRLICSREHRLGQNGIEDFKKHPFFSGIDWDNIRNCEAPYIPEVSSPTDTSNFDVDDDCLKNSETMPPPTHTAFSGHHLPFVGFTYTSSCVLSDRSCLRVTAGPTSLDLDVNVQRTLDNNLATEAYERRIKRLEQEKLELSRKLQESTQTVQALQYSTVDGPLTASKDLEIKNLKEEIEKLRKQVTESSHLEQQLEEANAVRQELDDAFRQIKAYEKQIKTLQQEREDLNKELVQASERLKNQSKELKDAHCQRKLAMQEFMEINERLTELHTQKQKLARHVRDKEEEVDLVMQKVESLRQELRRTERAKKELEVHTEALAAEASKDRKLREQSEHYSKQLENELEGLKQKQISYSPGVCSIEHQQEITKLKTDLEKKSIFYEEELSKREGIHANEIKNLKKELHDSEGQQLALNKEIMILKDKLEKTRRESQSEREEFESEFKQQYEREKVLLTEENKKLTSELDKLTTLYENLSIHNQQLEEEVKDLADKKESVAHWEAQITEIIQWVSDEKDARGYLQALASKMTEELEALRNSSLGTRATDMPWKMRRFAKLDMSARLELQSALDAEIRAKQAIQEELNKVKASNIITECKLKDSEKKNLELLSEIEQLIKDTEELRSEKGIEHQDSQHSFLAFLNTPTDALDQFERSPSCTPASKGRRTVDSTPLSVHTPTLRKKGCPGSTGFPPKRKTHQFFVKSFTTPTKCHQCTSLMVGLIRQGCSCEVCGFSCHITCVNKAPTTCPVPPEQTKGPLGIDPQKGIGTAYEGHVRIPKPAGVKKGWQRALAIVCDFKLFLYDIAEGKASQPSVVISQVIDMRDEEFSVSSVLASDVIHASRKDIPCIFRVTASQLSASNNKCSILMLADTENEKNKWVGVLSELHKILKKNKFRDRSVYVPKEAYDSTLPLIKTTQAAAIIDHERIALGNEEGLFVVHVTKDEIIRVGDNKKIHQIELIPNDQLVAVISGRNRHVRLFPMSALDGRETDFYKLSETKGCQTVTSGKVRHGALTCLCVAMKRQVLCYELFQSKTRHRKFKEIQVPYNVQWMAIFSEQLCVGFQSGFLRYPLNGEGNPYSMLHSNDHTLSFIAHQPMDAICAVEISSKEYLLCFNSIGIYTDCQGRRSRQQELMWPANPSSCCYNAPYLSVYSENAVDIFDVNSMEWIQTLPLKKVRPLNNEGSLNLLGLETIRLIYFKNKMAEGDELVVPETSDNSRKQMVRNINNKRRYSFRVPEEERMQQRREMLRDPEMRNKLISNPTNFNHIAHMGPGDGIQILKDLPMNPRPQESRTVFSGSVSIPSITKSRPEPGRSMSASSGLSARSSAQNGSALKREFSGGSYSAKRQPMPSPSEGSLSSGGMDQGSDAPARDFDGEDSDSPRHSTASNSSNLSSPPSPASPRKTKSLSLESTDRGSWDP
PIP5K1C (human), sequence (O60331 whole entry, looked up): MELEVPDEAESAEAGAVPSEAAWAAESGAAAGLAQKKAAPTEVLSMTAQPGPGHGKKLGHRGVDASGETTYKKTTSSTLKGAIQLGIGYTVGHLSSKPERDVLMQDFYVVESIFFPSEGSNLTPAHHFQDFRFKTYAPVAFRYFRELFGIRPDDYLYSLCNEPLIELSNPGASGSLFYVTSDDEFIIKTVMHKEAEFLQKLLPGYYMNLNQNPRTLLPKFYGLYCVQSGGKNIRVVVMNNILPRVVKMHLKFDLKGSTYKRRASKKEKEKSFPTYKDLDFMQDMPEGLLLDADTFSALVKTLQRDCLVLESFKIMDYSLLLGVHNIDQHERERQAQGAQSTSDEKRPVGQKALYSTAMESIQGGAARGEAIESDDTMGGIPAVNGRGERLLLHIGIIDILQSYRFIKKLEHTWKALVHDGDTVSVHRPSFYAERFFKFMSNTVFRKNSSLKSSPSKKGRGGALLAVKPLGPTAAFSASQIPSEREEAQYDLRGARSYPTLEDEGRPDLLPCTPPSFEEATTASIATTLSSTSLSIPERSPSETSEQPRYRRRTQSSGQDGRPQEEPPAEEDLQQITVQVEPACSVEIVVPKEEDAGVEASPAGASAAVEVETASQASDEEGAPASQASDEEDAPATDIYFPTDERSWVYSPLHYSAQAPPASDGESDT
EIF2AK1 (human), sequence (Q9BQI3 whole entry, looked up): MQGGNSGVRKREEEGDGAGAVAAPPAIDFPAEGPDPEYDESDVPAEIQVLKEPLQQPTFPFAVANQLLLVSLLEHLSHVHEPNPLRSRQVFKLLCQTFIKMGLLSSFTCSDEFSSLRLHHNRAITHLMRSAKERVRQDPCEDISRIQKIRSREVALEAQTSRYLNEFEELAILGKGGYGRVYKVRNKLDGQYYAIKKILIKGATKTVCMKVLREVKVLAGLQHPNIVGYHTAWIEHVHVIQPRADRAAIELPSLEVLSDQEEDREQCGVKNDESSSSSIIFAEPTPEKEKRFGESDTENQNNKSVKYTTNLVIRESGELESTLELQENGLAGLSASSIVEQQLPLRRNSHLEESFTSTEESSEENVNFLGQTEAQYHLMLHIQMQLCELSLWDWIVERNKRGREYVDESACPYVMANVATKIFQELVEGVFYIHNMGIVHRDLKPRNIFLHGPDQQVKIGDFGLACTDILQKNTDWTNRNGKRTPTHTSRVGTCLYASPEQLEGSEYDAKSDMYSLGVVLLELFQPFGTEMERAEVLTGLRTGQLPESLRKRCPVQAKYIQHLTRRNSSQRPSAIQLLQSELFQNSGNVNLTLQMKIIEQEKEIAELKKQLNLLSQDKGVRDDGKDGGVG
PIK3CA (human), P42336 [E545K], sequence (P42336 whole entry E545K, looked up): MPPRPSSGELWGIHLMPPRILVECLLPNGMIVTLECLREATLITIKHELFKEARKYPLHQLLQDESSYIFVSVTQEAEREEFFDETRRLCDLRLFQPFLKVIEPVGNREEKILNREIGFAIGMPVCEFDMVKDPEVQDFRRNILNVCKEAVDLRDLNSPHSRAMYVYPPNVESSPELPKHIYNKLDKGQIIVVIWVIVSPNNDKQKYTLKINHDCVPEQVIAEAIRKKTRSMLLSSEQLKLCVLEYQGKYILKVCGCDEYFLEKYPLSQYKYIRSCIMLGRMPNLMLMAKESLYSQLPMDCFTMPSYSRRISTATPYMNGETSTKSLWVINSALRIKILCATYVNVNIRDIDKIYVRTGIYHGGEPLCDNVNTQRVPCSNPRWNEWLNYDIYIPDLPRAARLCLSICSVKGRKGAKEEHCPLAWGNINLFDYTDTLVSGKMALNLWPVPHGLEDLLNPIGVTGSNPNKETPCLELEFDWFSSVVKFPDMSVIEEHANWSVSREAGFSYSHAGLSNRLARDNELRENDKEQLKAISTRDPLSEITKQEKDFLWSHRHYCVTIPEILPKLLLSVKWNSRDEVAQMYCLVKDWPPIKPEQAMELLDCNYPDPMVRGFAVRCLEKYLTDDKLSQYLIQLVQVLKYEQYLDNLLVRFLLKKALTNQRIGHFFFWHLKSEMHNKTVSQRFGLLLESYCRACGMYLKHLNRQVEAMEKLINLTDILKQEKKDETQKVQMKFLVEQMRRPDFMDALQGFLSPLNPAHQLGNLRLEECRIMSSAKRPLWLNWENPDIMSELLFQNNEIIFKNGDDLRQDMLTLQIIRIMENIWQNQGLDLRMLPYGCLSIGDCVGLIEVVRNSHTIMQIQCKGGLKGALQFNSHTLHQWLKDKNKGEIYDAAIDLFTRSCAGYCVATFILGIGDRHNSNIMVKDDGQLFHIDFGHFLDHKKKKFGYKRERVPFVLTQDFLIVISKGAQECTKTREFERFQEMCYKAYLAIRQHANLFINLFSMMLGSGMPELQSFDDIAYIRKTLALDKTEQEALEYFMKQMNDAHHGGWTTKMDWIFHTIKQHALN
IRAK1 (human), sequence (P51617 whole entry, looked up): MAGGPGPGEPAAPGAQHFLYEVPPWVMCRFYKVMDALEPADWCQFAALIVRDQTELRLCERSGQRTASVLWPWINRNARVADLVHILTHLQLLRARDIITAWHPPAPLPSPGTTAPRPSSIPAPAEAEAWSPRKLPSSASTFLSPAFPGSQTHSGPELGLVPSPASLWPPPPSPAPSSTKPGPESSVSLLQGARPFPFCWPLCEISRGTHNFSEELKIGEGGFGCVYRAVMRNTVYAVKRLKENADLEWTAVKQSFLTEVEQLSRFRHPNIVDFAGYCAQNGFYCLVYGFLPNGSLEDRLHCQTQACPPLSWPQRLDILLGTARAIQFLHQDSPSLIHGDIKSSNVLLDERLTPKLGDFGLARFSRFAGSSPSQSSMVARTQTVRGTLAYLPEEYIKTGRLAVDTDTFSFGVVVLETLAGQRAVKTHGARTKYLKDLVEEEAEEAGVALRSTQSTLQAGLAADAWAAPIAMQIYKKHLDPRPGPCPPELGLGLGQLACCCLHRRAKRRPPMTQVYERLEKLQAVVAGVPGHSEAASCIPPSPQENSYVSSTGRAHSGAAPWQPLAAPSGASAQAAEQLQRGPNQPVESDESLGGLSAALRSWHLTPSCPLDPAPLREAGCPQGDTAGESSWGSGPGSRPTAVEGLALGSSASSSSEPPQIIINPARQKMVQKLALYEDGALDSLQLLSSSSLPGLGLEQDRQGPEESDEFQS
PIK3CA (human), P42336 [E542K], sequence (P42336 whole entry E542K, looked up): as the sequence (P42336 whole entry E545K, looked up) above, with E542K, K545E counted along it

**Q.** `COCCNCCCn1c(C(=O)CF)c(-c2ccc(C)cc2)c2c(N)ncnc21` was tested. Which kinase still bound, per cent of control (CDK2 (human)) did it give?
**A.** The kinase still bound, per cent of control was 83%.

**Q.** And the kinase still bound, per cent of control [1]?
**A.** The kinase still bound, per cent of control was 100%.

**Q.** And the kinase still bound, per cent of control (CDC42BPA (human))?
**A.** Its kinase still bound, per cent of control is 92%.

**Q.** And the kinase still bound, per cent of control (MAP3K4 (human))?
**A.** The kinase still bound, per cent of control was 100%.

**Q.** And the kinase still bound, per cent of control (MAP3K15 (human))?
**A.** The kinase still bound, per cent of control was 100%.

**Q.** What about the kinase still bound, per cent of control (STK36 (human)) of the same compound?
**A.** The kinase still bound, per cent of control was 95%.

**Q.** What about the kinase still bound, per cent of control (BMX (human)) of the same compound?
**A.** Its kinase still bound, per cent of control is 98%.

**Q.** And the kinase still bound, per cent of control (MAP3K11 (human))?
**A.** Its kinase still bound, per cent of control is 100%.

**Q.** What about the kinase still bound, per cent of control (RPS6KA4 KD1 (human)) of the same compound?
**A.** Its kinase still bound, per cent of control is 100%.

**Q.** What about the kinase still bound, per cent of control (ICK (human)) of the same compound?
**A.** The kinase still bound, per cent of control was 100%.

**Q.** And the kinase still bound, per cent of control (CSF1R (human))?
**A.** Its kinase still bound, per cent of control is 89%.

**Q.** And the kinase still bound, per cent of control (GRK4 (human))?
**A.** The kinase still bound, per cent of control was 85%.

**Q.** And the kinase still bound, per cent of control (PRPF4B (human))?
**A.** Its kinase still bound, per cent of control is 100%.

**Q.** And the kinase still bound, per cent of control (MAP2K2 (human))?
**A.** Its kinase still bound, per cent of control is 100%.

**Q.** And the kinase still bound, per cent of control (TYRO3 (human))?
**A.** Its kinase still bound, per cent of control is 100%.

**Q.** What about the kinase still bound, per cent of control (PIM3 (human)) of the same compound?
**A.** Its kinase still bound, per cent of control is 100%.

**Q.** And the kinase still bound, per cent of control (INSR (human))?
**A.** Its kinase still bound, per cent of control is 84%.

**Q.** And the kinase still bound, per cent of control [2]?
**A.** Its kinase still bound, per cent of control is 100%.

**Q.** What about the kinase still bound, per cent of control (STK11 (human)) of the same compound?
**A.** The kinase still bound, per cent of control was 98%.

**Q.** What about the kinase still bound, per cent of control (MAP4K2 (human)) of the same compound?
**A.** The kinase still bound, per cent of control was 94%.

**Q.** What about the kinase still bound, per cent of control (TBK1 (human)) of the same compound?
**A.** The kinase still bound, per cent of control was 100%.

**Q.** And the kinase still bound, per cent of control (NEK5 (human))?
**A.** Its kinase still bound, per cent of control is 100%.

**Q.** And the kinase still bound, per cent of control (PRKAA2 (human))?
**A.** The kinase still bound, per cent of control was 75%.

**Q.** And the kinase still bound, per cent of control (MAPK4 (human))?
**A.** The kinase still bound, per cent of control was 100%.

**Q.** What about the kinase still bound, per cent of control [3] of the same compound?
**A.** The kinase still bound, per cent of control was 100%.

**Q.** What about the kinase still bound, per cent of control (PIP5K1C (human)) of the same compound?
**A.** Its kinase still bound, per cent of control is 100%.

**Q.** And the kinase still bound, per cent of control (CLK1 (human))?
**A.** The kinase still bound, per cent of control was 87%.

**Q.** And the kinase still bound, per cent of control (RPS6KA4 KD2 (human))?
**A.** Its kinase still bound, per cent of control is 100%.

**Q.** What about the kinase still bound, per cent of control (TEC (human)) of the same compound?
**A.** The kinase still bound, per cent of control was 100%.

**Q.** What about the kinase still bound, per cent of control [4] of the same compound?
**A.** The kinase still bound, per cent of control was 100%.

**Q.** What about the kinase still bound, per cent of control (STK32B (human)) of the same compound?
**A.** Its kinase still bound, per cent of control is 98%.

**Q.** What about the kinase still bound, per cent of control (CASK (human)) of the same compound?
**A.** Its kinase still bound, per cent of control is 62%.

**Q.** And the kinase still bound, per cent of control [5]?
**A.** Its kinase still bound, per cent of control is 73%.

**Q.** And the kinase still bound, per cent of control (PDPK1 (human))?
**A.** The kinase still bound, per cent of control was 100%.

**Q.** And the kinase still bound, per cent of control (HUNK (human))?
**A.** Its kinase still bound, per cent of control is 100%.

**Q.** And the kinase still bound, per cent of control (RPS6KA6 KD2 (human))?
**A.** Its kinase still bound, per cent of control is 2.4%.

**Q.** What about the kinase still bound, per cent of control [6] of the same compound?
**A.** Its kinase still bound, per cent of control is 100%.

**Q.** And the kinase still bound, per cent of control (PLK2 (human))?
**A.** The kinase still bound, per cent of control was 96%.

**Q.** And the kinase still bound, per cent of control (EIF2AK1 (human))?
**A.** The kinase still bound, per cent of control was 100%.

**Q.** And the kinase still bound, per cent of control (IRAK1 (human))?
**A.** Its kinase still bound, per cent of control is 93%.

**Q.** And the kinase still bound, per cent of control (MAPK14 (human))?
**A.** Its kinase still bound, per cent of control is 96%.

**Q.** What about the kinase still bound, per cent of control (ULK2 (human)) of the same compound?
**A.** The kinase still bound, per cent of control was 90%.

**Q.** And the kinase still bound, per cent of control (STK32A (human))?
**A.** The kinase still bound, per cent of control was 94%.
